Laboratory results: patent US5912414A, “Nucleic acid fragments, chimeric genes and methods for increasing the methionine content of the seeds of plants” (priority 1996, dated 1999)

Experiments:
[1] = test system: E. coli strain Gif106M1 transformed with pBT436; assay: Growth inhibition of Gif106M1 transformed with pBT436 on supplemented M9 media; format: cell-based; conditions: M9 media with arginine, isoleucine, ampicillin; reversed by threonine plus methionine
Source text: To establish that the cloned lysC gene was functional, pBT436 was transformed into E. coli strain Gif106M1 (E. coli Genetic Stock Center strain CGSC-5074) which has mutations in each of the three E. coli AK genes [Theze et al. (1974) J. Bacteriol. 117:133-143]. This strain lacks all AK activity and therefore requires diaminopimelate (a precursor to lysine which is also essential for cell wall biosynthesis), threonine and methionine.
Addition of lysine (or diaminopimelate which is readily converted to lysine in vivo) at a concentration of approximately 0.2 mM to the growth medium inhibits the growth of Gif106M1 transformed with pBT436.M9 media [see Sambrook et al. (1989) Molecular Cloning: a Laboratory Manual, Cold Spring Harbor Laboratory Press] supplemented with the arginine and isoleucine, required for Gif106M1 growth, and ampicillin, to maintain selection for the pBT436 plasmid, was used. This inhibition is reversed by addition of threonine plus methionine to the growth media. […] This property of pBT436-transformed Gif106M1 was used to select for mutations in lysC that encoded lysine-insensitive AKIII.

AKII-HDHII (AK activity) = target: T1, AKII-HDHII (AK activity) (Escherichia coli, UniProt P00562); assay: Inhibition of AK activity of clone 5 extract (metL, AKII-HDHII) by pathway end-products; format: biochemical, E. coli; conditions: 30 mM end-product; extract from clone 5
T1 construct: made in house; host or cells: E. coli BL21(DE3), pBT430-derived expression vector; sonicated cell extract of clone 5 (pBT718)
Experimental: (§1) Cultures were grown in TB medium containing ampicillin (100 mg/L) at 37° C. overnight. The cells were collected by centrifugation and resuspended in 1/25th the original culture volume in 50 mM NaCl; 50 mM Tris-Cl, pH 7.5; 1 mM EDTA, and frozen at -20° C., thawed at 37° C. and sonicated, in an ice-water bath, to lyse the cells. The lysate was centrifuged at 4° C. for 5 min at 12,000 rpm. The supernatant was removed and the pellet was resuspended in the above buffer.
(§2) Assay mix (for 12×1.0 mL or 48×0.25 mL assays):
(§3) Each 1.5 ml eppendorf assay tube contains: […]
(§4) Spin for 2 min in eppendorf centrifuge tube.
(§5) Two extracts also had high levels of AK enzyme activity. These two extracts were then tested for inhibition of AK or HDH activity by the pathway end-products, lys, thr and met.

[2] = target: T2, AKII-HDHII (HDH activity) (Escherichia coli, UniProt P00562); assay: Inhibition of HDH activity of clone 5 extract (metL, AKII-HDHII) by pathway end-products; format: biochemical, E. coli; conditions: 30 mM end-product; extract from clone 5
T2 construct: made in house; host or cells: E. coli BL21(DE3), pBT430-derived expression vector; sonicated cell extract of clone 5 (pBT718)
Experimental: as §1
The supernatant fractions were assayed for HDH enzyme activities to identify clones expressing functional proteins. HDH activity was assayed as shown below: […]
Make Mixture of above reagents with amounts multiplied by number of assays. Use 0.9 mls of mix for 1 ml assay; 180 μl of mix for 0.2 ml assay in microtiter dish
to 1/2 the assay mix; remaining 1/2 lacks ASA to serve as blank
Add enzyme extract last to start reaction. Incubate at ~30° C.; monitor NADPH oxidation at […]. 1 unit oxidizes 1 μmol NADPH/min at 30° C. in the 1 ml reaction.
as §5

wild type AKIII = target: T3, wild type AKIII (Escherichia coli, UniProt P08660); assay: Inhibition of wild type AKIII aspartokinase activity by lysine; format: biochemical, E. coli
T3 construct: made in house; host or cells: E. coli Gif106M1 transformed with pBT436 (the plasmid of the cloned wild type lysC gene)
Experimental: Single colonies of Gif106M1 transformed with pBT436 were picked and resuspended in 200 μL of a mixture of 100 μL 1% lysine plus 100 μL of M9 media. The entire cell suspension containing 10^7 -10^8 cells was spread on a petri dish containing M9 media supplemented with the arginine, isoleucine, and ampicillin. Sixteen petri dishes were thus prepared. From 1 to 20 colonies appeared on 11 of the 16 petri dishes. One or two (if available) colonies were picked and retested for lysine resistance and from this nine lysine-resistant clones were obtained. Plasmid DNA was prepared from eight of these and re-transformed into Gif106M1 to determine whether the lysine resistance determinant was plasmid-borne. Six of the eight plasmid DNAs yielded lysine-resistant colonies. Three of these six carried lysC genes encoding AKIII that was uninhibited by 15 mM lysine, whereas wild type AKIII is 50% inhibited by 0.3-0.4 mM lysine and >90% inhibited by 1 mM lysine (see Example 2 for details).
as §2, §3, §4

[3] = test system: lysine-insensitive AKIII (mutant lysC genes M2, M3, M4); assay: Inhibition by lysine of AKIII encoded by mutant lysC genes (lysine-resistant clones); format: biochemical, E. coli; conditions: 15 mM lysine; three of six lysine-resistant plasmids

T1 sequence (P00562 other isoform, or with tags, fused parts or gaps): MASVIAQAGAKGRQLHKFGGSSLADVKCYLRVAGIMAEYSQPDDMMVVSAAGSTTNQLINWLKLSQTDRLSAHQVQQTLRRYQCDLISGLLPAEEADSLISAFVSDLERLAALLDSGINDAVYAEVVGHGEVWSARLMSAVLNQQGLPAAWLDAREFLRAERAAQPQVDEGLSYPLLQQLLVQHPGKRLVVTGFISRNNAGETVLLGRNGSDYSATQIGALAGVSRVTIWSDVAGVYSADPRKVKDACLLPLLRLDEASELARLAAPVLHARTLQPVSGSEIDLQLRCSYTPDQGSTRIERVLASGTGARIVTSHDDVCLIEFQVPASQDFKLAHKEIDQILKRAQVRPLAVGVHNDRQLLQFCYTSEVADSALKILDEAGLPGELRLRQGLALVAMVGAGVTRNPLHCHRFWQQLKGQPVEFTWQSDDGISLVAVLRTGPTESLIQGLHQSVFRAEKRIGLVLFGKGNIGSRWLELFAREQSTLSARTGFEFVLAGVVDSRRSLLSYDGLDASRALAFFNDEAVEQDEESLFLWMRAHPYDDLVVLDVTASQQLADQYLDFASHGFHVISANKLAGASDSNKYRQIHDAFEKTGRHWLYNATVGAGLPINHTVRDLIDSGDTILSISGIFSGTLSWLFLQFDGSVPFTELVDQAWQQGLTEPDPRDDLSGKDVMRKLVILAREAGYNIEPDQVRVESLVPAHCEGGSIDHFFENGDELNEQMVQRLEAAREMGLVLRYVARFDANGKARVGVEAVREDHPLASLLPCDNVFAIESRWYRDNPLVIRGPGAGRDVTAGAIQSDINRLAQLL
T2 sequence (P00562 other isoform, or with tags, fused parts or gaps): as above
T3 sequence (P08660 2-449): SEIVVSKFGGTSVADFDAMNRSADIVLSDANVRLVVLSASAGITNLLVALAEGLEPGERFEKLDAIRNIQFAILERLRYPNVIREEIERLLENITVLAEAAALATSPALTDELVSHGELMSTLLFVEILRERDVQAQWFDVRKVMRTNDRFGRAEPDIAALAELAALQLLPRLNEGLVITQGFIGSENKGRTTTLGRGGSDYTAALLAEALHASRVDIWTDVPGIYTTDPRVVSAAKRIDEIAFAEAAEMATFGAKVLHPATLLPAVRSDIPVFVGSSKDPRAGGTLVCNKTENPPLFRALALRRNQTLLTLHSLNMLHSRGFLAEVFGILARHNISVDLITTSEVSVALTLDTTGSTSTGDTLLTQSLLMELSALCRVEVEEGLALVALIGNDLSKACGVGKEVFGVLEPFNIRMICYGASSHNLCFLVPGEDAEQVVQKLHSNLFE

Structure (SMILES)	concentration in the growth medium that inhibits growth [1]	inhibition of AK activity (AKII-HDHII (AK activity))	inhibition of HDH activity [2]	inhibition at 1000 µM (wild type AKIII; read-out: inhibition of wild type AKIII)	IC50 (wild type AKIII; wild type AKIII from cloned lysC (pBT436), read-out: lysine concentration giving 50% inhibition of wild type AKIII)	inhibition of AKIII encoded by mutant lysC genes [3]
NC(CCCC(N)C(=O)O)C(=O)O (centres unmarked) [diaminopimelate]	approximately 0.2 mM	–	–	–	–	–
C[C@@H](O)[C@H](N)C(=O)O [thr, threonine]	–	Neither the AK nor the HDH activity of the extract from clone 5 was inhibited	Neither the AK nor the HDH activity of the extract from clone 5 was inhibited	–	–	–
NCCCC[C@H](N)C(=O)O [lysine]	approximately 0.2 mM	Neither the AK nor the HDH activity of the extract from clone 5 was inhibited	Neither the AK nor the HDH activity of the extract from clone 5 was inhibited	> 90%	300 to 400 µM	uninhibited
CSCC[C@H](N)C(=O)O [met, methionine]	–	Neither the AK nor the HDH activity of the extract from clone 5 was inhibited	Neither the AK nor the HDH activity of the extract from clone 5 was inhibited	–	–	–
